The test system of one experiment is M. suipneumoniae NB12. Description: MIC against mycoplasma in vitro. The format is cell-based. Particulars: Mesomycoplasma hyopneumoniae.
Another experiment has as its system M. suipneumoniae JF 435. The experiment in a line: MIC against mycoplasma in vitro. Type of experiment: cell-based. The note with it: Mesomycoplasma hyopneumoniae, JF435, 144 h.
In the next experiment the test system is M. suipneumoniae Str. 11. Description: MIC against mycoplasma in vitro. The note with it: Mesomycoplasma hyopneumoniae. Type of experiment: cell-based.
For experiment [1], the system named is M. suipneumoniae J2206/183^b. Description: MIC against mycoplasma in vitro. Type of experiment: cell-based. Particulars: Mesomycoplasma hyopneumoniae, 144 h.
The subject of experiment [2] is M. suipneumoniae NCTC 10110. The experiment in a line: MIC against mycoplasma in vitro. Type of experiment: cell-based. Particulars: Mesomycoplasma hyopneumoniae, NCTC10110, 144 h.
Experiment [3] has as its system M. hyosynoviae ATCC 25591. The experiment in a line: MIC against mycoplasma in vitro. The note with it: 144 h. The format is cell-based.
In another experiment the test system is M. bovis NCTC 10131. The experiment in a line: microbe, parasite or virus in culture. The note with it: NCTC10131, 144 h. Type of experiment: cell-based.
Experiment [4] has as its system M. bovigenitalium ATCC 14173. Description: MIC against mycoplasma in vitro. The format is cell-based. Particulars: 144 h.
The subject of another experiment is M. gallisepticum S6. The experiment in a line: MIC against mycoplasma in vitro. The format is cell-based. Particulars: Mycoplasmoides gallisepticum.
In another experiment the test system is M. pneumoniae ATCC 15492. The experiment in a line: MIC against mycoplasma in vitro. The format is cell-based. Particulars: Mycoplasmoides pneumoniae, ATCC15492, 144 h.
In experiment [5] the test system is Ps. aeruginosa NCTC 10662. Description: MIC against human bacteria in vitro. Type of experiment: cell-based. Particulars: Pseudomonas aeruginosa, NCTC10662; Ps. aeruginosa NCTC 10662; 5% chocolated horse blood agar, 18 hours; read-out: MIC.
In experiment [6] the test system is Haemophilus influenzae Wy21. Description: MIC against human bacteria in vitro. The format is cell-based.
The test system of experiment [7] is Strep. pyogenes R80/421-A. The experiment in a line: MIC against human bacteria in vitro. The note with it: Streptococcus pyogenes. Type of experiment: cell-based.
The subject of another experiment is E. coli NCTC 10418. The experiment in a line: MIC against veterinary bacteria in vitro. Particulars: Escherichia coli, NCTC10418, 18 h.
A further experiment has as its system S. typhimurium S18. The experiment in a line: MIC against veterinary bacteria in vitro. The note with it: Salmonella enterica, TYPHIMURIUM, 18 h.
In a further experiment the test system is Past. haemolytica PA5. Description: MIC against veterinary bacteria in vitro. Particulars: Mannheimia haemolytica, PA5, 18 h.
Experiment [8] deals with Erysipelothrix rhusiopathiae NCTC 8163. The experiment in a line: MIC against veterinary bacteria in vitro. Particulars: Erysipelothrix rhusiopathiae, NCTC8163, 18 h.
Method: (§1) The activity of the compounds of the Examples against various veterinarily important bacteria, was assayed in vitro using two-fold serial dilutions in Diagnostic Sensitivity Test Agar inoculated with 10^4 organisms.
Experiment [9] has as its system Corynebacterium pyogenes CY1. The experiment in a line: MIC against veterinary bacteria in vitro. The note with it: CY1, 18 h.
Method: as §1
Experiment [10] has as its system Staph. aureus 152 (pen. sens). Description: MIC against veterinary bacteria in vitro. Particulars: Staphylococcus aureus, 18 h.
Method: as §1
Another experiment has as its system Staph. aureus Oxford. The experiment in a line: MIC against veterinary bacteria in vitro. Particulars: Staphylococcus aureus, 18 h.
Another experiment concerns Strep. uberis SPU1. Description: MIC against veterinary bacteria in vitro. Particulars: Streptococcus uberis, SPU1, 18 h.
The test system of a further experiment is B. subtilis ATCC 6633. Description: MIC against veterinary bacteria in vitro. Particulars: Bacillus subtilis, ATCC6633, 18 h.
[11] abbreviates: 144 h, M. suipneumoniae Str. 11, 6 days, 37° C., read-out: MIC.
Setting [12] is: M. pneumoniae ATCC 15492, 6 days, 37° C., read-out: MIC.
Where [13] appears, read: Haemophilus influenzae Wy21, 5% chocolated horse blood agar, 18 hours, read-out: MIC.
Where [14] appears, read: Strep. pyogenes R80/421-A, 5% chocolated horse blood agar, 18 hours, read-out: MIC.

Consider three molecules from US5041567A, “Antibacterial monic acid derivatives” (Beecham Group plc, priority 1982, dated 1991).

Molecules are shown by their SMILES. Converted amounts (≈) assume the structure as drawn. Like-named read-outs stand apart in the source and are kept apart here.

Method for B. subtilis ATCC 6633: as §1
Method for E. coli NCTC 10418: as §1
Method for Past. haemolytica PA5: as §1
Method for S. typhimurium S18: as §1
Method for Staph. aureus Oxford: as §1
Method for Strep. uberis SPU1: as §1

In the case of `C/C(=C\c1ncc(-c2ccsc2)o1)C[C@@H]1OC[C@H](C[C@@H]2O[C@H]2[C@@H](C)[C@H](C)O)[C@@H](O)[C@H]1O` [Example 20, 5-(3-Thienyl)-2-(1-normon-2-yl) oxazole A], the MIC in the experiment on M. suipneumoniae NB12 (144 h, M. suipneumoniae NB12, Friis broth, 0.9% agarose, 6 days, 37° C., read-out: MIC) is 0.5 µg/mL (≈ 1.11 µM); in the experiment on M. suipneumoniae JF 435, 1 µg/mL (≈ 2.22 µM); in the experiment on M. suipneumoniae Str. 11 (setting [11]), 0.5 µg/mL (≈ 1.11 µM); in experiment [1] it was 1 µg/mL (≈ 2.22 µM); in [2] it was 1 µg/mL (≈ 2.22 µM); in [3] (M. hyosynoviae ATCC 25591, 6 days, 37° C., read-out: MIC) it was 0.5 µg/mL (≈ 1.11 µM). The MIC was no more than 0.01 µg/mL in the experiment with M. bovis NCTC 10131; 0.05 µg/mL (≈ 0.111 µM) in [4]; 2.5 µg/mL (≈ 5.56 µM) in the experiment on M. gallisepticum S6 (S6, 144 h); 0.5 µg/mL (≈ 1.11 µM) in the experiment with M. pneumoniae ATCC 15492 (setting [12]); greater than 128 µg/mL in experiment [5]; 0.5 µg/mL (≈ 1.11 µM) in [6] (Haemophilus influenzae, WY21, 18 h). Also, the MIC in experiment [7] (R80/421A, 18 h) was 0.25 µg/mL (≈ 0.556 µM); in the experiment on E. coli NCTC 10418, greater than 80 µg/mL; in the experiment on S. typhimurium S18 it was greater than 80 µg/mL; against Past. haemolytica PA5 it was 80 µg/mL (≈ 178 µM); in experiment [8] it was 80 µg/mL (≈ 178 µM); in [9] it was greater than 80 µg/mL. In addition, the MIC in experiment [10] was 0.63 µg/mL (≈ 1.4 µM); against Staph. aureus Oxford it was 2.55 µg/mL (≈ 5.67 µM); in the experiment on Strep. uberis SPU1, 0.156 µg/mL (≈ 0.347 µM); against B. subtilis ATCC 6633, 10 µg/mL (≈ 22.2 µM).
For `C/C(=C\c1ncc(-c2ccc(C#N)cc2)o1)C[C@@H]1OC[C@H](C[C@@H]2O[C@H]2[C@@H](C)[C@H](C)O)[C@@H](O)[C@H]1O` [Example 21, 5-p-Cyanophenyl-2-(1-normon-2-yl) oxazole A], the MIC with M. suipneumoniae NB12 (NB12, 144 h) was 0.25 µg/mL (≈ 0.534 µM); in the experiment with M. suipneumoniae JF 435 (M. suipneumoniae JF 435, 6 days, 37° C., read-out: MIC), 0.5 µg/mL (≈ 1.07 µM); in the experiment with M. suipneumoniae Str. 11 (STR.11, 144 h) it was 0.25 µg/mL (≈ 0.534 µM); in experiment [1] (M. suipneumoniae J2206/183^b, 6 days, 37° C., read-out: MIC) it was 0.5 µg/mL (≈ 1.07 µM); in experiment [2] (M. suipneumoniae NCTC 10110, 6 days, 37° C., read-out: MIC), 0.5 µg/mL (≈ 1.07 µM); in experiment [3] it was 0.1 µg/mL (≈ 0.213 µM). Also, the MIC with M. bovis NCTC 10131 was 0.025 µg/mL (≈ 0.0534 µM); in experiment [4], 0.05 µg/mL (≈ 0.107 µM); in the experiment with M. gallisepticum S6 (S6, 144 h) it was 0.25 µg/mL (≈ 0.534 µM); with M. pneumoniae ATCC 15492 it was 0.25 µg/mL (≈ 0.534 µM); in experiment [5], greater than 128 µg/mL; in [6] (setting [13]), 2 µg/mL (≈ 4.27 µM). For the same molecule, the MIC in experiment [7] (setting [14]) was 1 µg/mL (≈ 2.13 µM); in the experiment with E. coli NCTC 10418 it was greater than 80 µg/mL; in the experiment on S. typhimurium S18, greater than 80 µg/mL; in the experiment with Past. haemolytica PA5 it was 20 µg/mL (≈ 42.7 µM); in experiment [8], 40 µg/mL (≈ 85.4 µM); in experiment [9], greater than 80 µg/mL. Also, the MIC in [10] amounted to 0.625 µg/mL (≈ 1.33 µM); against Staph. aureus Oxford, 2.5 µg/mL (≈ 5.34 µM); against Strep. uberis SPU1, 0.156 µg/mL (≈ 0.333 µM); in the experiment on B. subtilis ATCC 6633 it was 2.5 µg/mL (≈ 5.34 µM).
For `CSc1cccc(-c2cnc(/C=C(\C)C[C@@H]3OC[C@H](C[C@@H]4O[C@H]4[C@@H](C)[C@H](C)O)[C@@H](O)[C@H]3O)o2)c1` [Example 22, 5-m-Methylthiophenyl-2-(1-normon-2-yl)oxazole A], the MIC in the experiment with M. suipneumoniae NB12 (NB12, 144 h) is 1 µg/mL (≈ 2.04 µM); against M. suipneumoniae JF 435 it was 1 µg/mL (≈ 2.04 µM); in the experiment with M. suipneumoniae Str. 11 (setting [11]), 0.5 µg/mL (≈ 1.02 µM); in experiment [1], 1 µg/mL (≈ 2.04 µM); in experiment [2], 1 µg/mL (≈ 2.04 µM); in experiment [3] it was 1 µg/mL (≈ 2.04 µM). Further, the MIC against M. bovis NCTC 10131 is 0.05 µg/mL (≈ 0.102 µM); in experiment [4], 0.1 µg/mL (≈ 0.204 µM); in the experiment with M. gallisepticum S6 (144 h, M. gallisepticum S6, 6 days, 37° C., read-out: MIC), 5 µg/mL (≈ 10.2 µM); in the experiment on M. pneumoniae ATCC 15492 (setting [12]), 5 µg/mL (≈ 10.2 µM); in experiment [5], greater than 128 µg/mL; in [6] (setting [13]) it was 4 µg/mL (≈ 8.17 µM). Moreover, the MIC in experiment [7] (setting [14]) was 8 µg/mL (≈ 16.3 µM); with E. coli NCTC 10418, greater than 80 µg/mL; against S. typhimurium S18, greater than 80 µg/mL; in the experiment on Past. haemolytica PA5, 80 µg/mL (≈ 163 µM); in experiment [8], 80 µg/mL (≈ 163 µM); in experiment [9], greater than 80 µg/mL. Moreover, the MIC was determined as 1.25 µg/mL (≈ 2.55 µM) in experiment [10], 2.5 µg/mL (≈ 5.11 µM) in the experiment with Staph. aureus Oxford, 0.156 µg/mL (≈ 0.319 µM) in the experiment with Strep. uberis SPU1 and 0.625 µg/mL (≈ 1.28 µM) in the experiment with B. subtilis ATCC 6633.
